# Measured values: ChEMBL document CHEMBL4321836, “Discovery of BAY-298 and BAY-899: Tetrahydro-1,6-naphthyridine-Based, Potent, and Selective Antagonists of the Luteinizing Hormone Receptor Which Reduce Sex Hormone Levels in Vivo” (J Med Chem, 2019)
# What was measured:
# Rattus norvegicus [1] = experiment: Downregulation of 0.3 ug human luteinizing hormone-induced testosterone expression in plasma of cetrorelix-treated male rat at 14 mg/kg, iv after 2 hrs by radioimmunoassay method (reference value: 33.4 nM); assay type: functional
# [2] = molecular target: T1, Lutropin-choriogonadotropic hormone receptor (Homo sapiens, UniProt P22888); experiment: Negative allosteric modulation of human luteinizing hormone receptor assessed as Emax for glycoprotein human luteinizing hormone-induced agonist activity at 0.84 nM to 17 uM preincubated for 20 mins followed by 4 times EC80 of agonist addition and measured after 60 mins by cell based TR-FRET assay relative to control
# T1 sequence (P22888 whole entry): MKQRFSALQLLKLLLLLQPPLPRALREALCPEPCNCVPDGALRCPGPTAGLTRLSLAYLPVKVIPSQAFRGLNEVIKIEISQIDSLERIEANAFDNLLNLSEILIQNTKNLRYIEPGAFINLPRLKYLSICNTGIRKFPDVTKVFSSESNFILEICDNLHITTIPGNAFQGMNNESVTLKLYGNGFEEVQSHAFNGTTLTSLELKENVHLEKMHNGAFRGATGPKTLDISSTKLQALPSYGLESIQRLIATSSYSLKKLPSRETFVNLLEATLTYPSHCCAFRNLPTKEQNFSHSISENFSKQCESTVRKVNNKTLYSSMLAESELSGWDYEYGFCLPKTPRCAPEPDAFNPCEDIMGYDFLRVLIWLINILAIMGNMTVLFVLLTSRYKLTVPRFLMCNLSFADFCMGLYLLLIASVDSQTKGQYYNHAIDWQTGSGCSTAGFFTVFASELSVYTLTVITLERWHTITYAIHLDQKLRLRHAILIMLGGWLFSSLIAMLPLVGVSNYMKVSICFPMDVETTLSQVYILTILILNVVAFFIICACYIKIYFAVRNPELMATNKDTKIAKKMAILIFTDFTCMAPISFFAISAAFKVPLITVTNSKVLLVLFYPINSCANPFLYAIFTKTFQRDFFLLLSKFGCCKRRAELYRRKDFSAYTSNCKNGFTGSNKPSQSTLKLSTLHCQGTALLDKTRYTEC
# [3] = molecular target: T1, Lutropin-choriogonadotropic hormone receptor; experiment: Negative allosteric modulation of human luteinizing hormone receptor assessed as reduction in glycoprotein human luteinizing hormone-induced agonist activity preincubated for 20 mins followed by 1 times EC80 of agonist addition and measured after 60 mins by cell based TR-FRET assay relative to control
# Rattus norvegicus [4] = experiment: Downregulation of estradiol level in proestrus staged-female rat serum at 72 mg/kg, po administered once daily for 8 days and measured by radioimmunoassay method (reference value: 125 pmol/L); assay type: functional
# [5] = molecular target: T1, Lutropin-choriogonadotropic hormone receptor; experiment: Negative allosteric modulation of human luteinizing hormone receptor assessed as Emax for glycoprotein human luteinizing hormone-induced agonist activity at 0.84 nM to 17 uM preincubated for 20 mins followed by 16 times EC80 of agonist addition and measured after 60 mins by cell based TR-FRET assay relative to control; conditions: at 0.00084 to 17 µM
# Rattus norvegicus [6] = experiment: Downregulation of human luteinizing hormone-induced progesterone expression in plasma of cetrorelix-treated female rat at 27 mg/kg, iv after 2 hrs by radioimmunoassay method (reference value: 243 nM); assay type: functional
# [7] = molecular target: T1, Lutropin-choriogonadotropic hormone receptor; experiment: Negative allosteric modulation of human luteinizing hormone receptor assessed as Emax for Org 43553-induced agonist activity at 0.84 nM to 17 uM preincubated for 20 mins followed by 1 times EC80 of agonist addition and measured after 60 mins by cell based TR-FRET assay relative to control
# [8] = molecular target: T1, Lutropin-choriogonadotropic hormone receptor; experiment: Negative allosteric modulation of human luteinizing hormone receptor assessed as Emax for glycoprotein human luteinizing hormone-induced agonist activity at 0.84 nM to 17 uM preincubated for 20 mins followed by 100 times EC80 of agonist addition and measured after 60 mins by cell based TR-FRET assay relative to control
# [9] = molecular target: T1, Lutropin-choriogonadotropic hormone receptor; experiment: Negative allosteric modulation of human luteinizing hormone receptor assessed as reduction in Org 43553-induced agonist activity preincubated for 20 mins followed by 16 times EC80 of agonist addition and measured after 60 mins by cell based TR-FRET assay relative to control
# Rattus norvegicus [10] = experiment: Downregulation of human luteinizing hormone-induced progesterone expression in plasma of cetrorelix-treated female rat at 14 mg/kg, iv after 2 hrs by radioimmunoassay method (reference value: 243 nM); assay type: functional
# [11] = molecular target: T1, Lutropin-choriogonadotropic hormone receptor; experiment: Negative allosteric modulation of human luteinizing hormone receptor assessed as Emax for Org 43553-induced agonist activity at 0.84 nM to 17 uM preincubated for 20 mins followed by 4 times EC80 of agonist addition and measured after 60 mins by cell based TR-FRET assay relative to control
# [12] = Free plasma concentration in female rat at 4.5 to 72 mg/kg, po administered once daily for 8 days; assay type: ADME, organism-based; conditions: in vivo, 192 h
# [13] = molecular target: T1, Lutropin-choriogonadotropic hormone receptor; experiment: Negative allosteric modulation of human luteinizing hormone receptor assessed as Emax for glycoprotein human luteinizing hormone-induced agonist activity at 0.84 nM to 17 uM preincubated for 20 mins followed by 1 times EC80 of agonist addition and measured after 60 mins by cell based TR-FRET assay relative to control
# Rattus norvegicus [14] = experiment: Effect on folliculo-genesis in 4 day cycle of po dosed normally cycling female rat assessed as induction of cycle arrest in diestrus stage by observing vaginal smears administered once daily for 8 days; assay type: functional, organism-based
# Rattus norvegicus [15] = experiment: Downregulation of estradiol level in proestrus staged-female rat serum at 36 mg/kg, po administered once daily for 8 days and measured by radioimmunoassay method (reference value: 125 pmol/L); assay type: functional
# [16] = molecular target: T1, Lutropin-choriogonadotropic hormone receptor; experiment: Negative allosteric modulation of human luteinizing hormone receptor assessed as Emax for glycoprotein human luteinizing hormone-induced agonist activity at 0.84 nM to 17 uM preincubated for 20 mins followed by 10 times EC80 of agonist addition and measured after 60 mins by cell based TR-FRET assay relative to control
# [17] = molecular target: T1, Lutropin-choriogonadotropic hormone receptor; experiment: Negative allosteric modulation of human luteinizing hormone receptor assessed as Emax for Org 43553-induced agonist activity at 0.84 nM to 17 uM preincubated for 20 mins followed by 10 times EC80 of agonist addition and measured after 60 mins by cell based TR-FRET assay relative to control
# Rattus norvegicus [18] = experiment: Downregulation of human luteinizing hormone-induced Egr-1 mRNA expression in cetrorelix-treated iv dosed female rat after 2 hrs by Taqman probe based RT-PCR analysis; assay type: functional, organism-based
# Rattus norvegicus [19] = experiment: Reversal of human luteinizing hormone-induced suppression of aromatase mRNA expression in cetrorelix-treated iv dosed female rat after 2 hrs by Taqman probe based RT-PCR analysis; assay type: functional, organism-based
# [20] = Plasma concentration in female rat at 4.5 to 72 mg/kg, po administered once daily for 8 days and measured on day 8; assay type: ADME, organism-based
# [21] = Fraction unbound in female rat at 4.5 to 72 mg/kg, po administered once daily for 8 days; assay type: ADME, organism-based; conditions: in vivo
# Rattus norvegicus [22] = experiment: Downregulation of human luteinizing hormone-induced progesterone expression in plasma of cetrorelix-treated iv dosed female rat after 2 hrs by radioimmunoassay method; assay type: functional, organism-based
# Rattus norvegicus [23] = experiment: Downregulation of estradiol level in proestrus staged-female rat serum at 9 mg/kg, po administered once daily for 8 days and measured by radioimmunoassay method (reference value: 125 pmol/L); assay type: functional
# Rattus norvegicus [24] = experiment: Downregulation of estradiol level in proestrus staged-female rat serum at 18 mg/kg, po administered once daily for 8 days and measured by radioimmunoassay method (reference value: 125 pmol/L); assay type: functional
# Rattus norvegicus [25] = experiment: Effect on folliculo-genesis in 4 day cycle of po dosed normally cycling female rat assessed as induction of cycle arrest in metestrus stage by observing vaginal smears administered once daily for 8 days and measured for 2 cycle-stage; assay type: functional, organism-based
# Rattus norvegicus [26] = experiment: Downregulation of human luteinizing hormone-induced progesterone expression in plasma of cetrorelix-treated female rat at 4.5 mg/kg, iv after 2 hrs by radioimmunoassay method (reference value: 243 nM); assay type: functional
# [27] = molecular target: T1, Lutropin-choriogonadotropic hormone receptor; experiment: Negative allosteric modulation of human luteinizing hormone receptor assessed as reduction in Org 43553-induced agonist activity preincubated for 20 mins followed by 100 times EC80 of agonist addition and measured after 60 mins by cell based TR-FRET assay relative to control
# [28] = molecular target: T1, Lutropin-choriogonadotropic hormone receptor; experiment: Negative allosteric modulation of human luteinizing hormone receptor assessed as reduction in glycoprotein human luteinizing hormone-induced agonist activity preincubated for 20 mins followed by 16 times EC80 of agonist addition and measured after 60 mins by cell based TR-FRET assay relative to control
# [29] = molecular target: T1, Lutropin-choriogonadotropic hormone receptor; experiment: Negative allosteric modulation of human luteinizing hormone receptor assessed as reduction in Org 43553-induced agonist activity preincubated for 20 mins followed by 4 times EC80 of agonist addition and measured after 60 mins by cell based TR-FRET assay relative to control
# [30] = molecular target: T1, Lutropin-choriogonadotropic hormone receptor; experiment: Negative allosteric modulation of human luteinizing hormone receptor assessed as reduction in glycoprotein human luteinizing hormone-induced agonist activity preincubated for 20 mins followed by 10 times EC80 of agonist addition and measured after 60 mins by cell based TR-FRET assay relative to control
structure (smiles),measurement,setting,value
O=C(Nc1ccc(Oc2ccc(F)cc2)cc1)N1CCc2ncccc2[C@@H]1c1ccc(Cl)cc1,Activity,Rattus norvegicus [1],12.6 nM
same,Emax,[2],99%
same,IC50,[3],97 nM
same,Activity,Rattus norvegicus [4],<39 pmol/L
same,Emax,[5],109%
same,Activity,Rattus norvegicus [6],50 nM
same,Emax,[7],104%
same,Emax,[8],98%
same,IC50,[9],1700 nM
same,Activity,Rattus norvegicus [10],51 nM
same,Emax,[11],102%
same,Cp(f),[12],24 nM
same,Emax,[13],99%
same,Activity,Rattus norvegicus [14],Dose-dependent effect
same,Activity,Rattus norvegicus [15],48 pmol/L
same,Emax,[16],106%
same,Emax,[17],102%
same,Activity,Rattus norvegicus [18],Dose-dependent effect
same,Activity,Rattus norvegicus [19],Dose-dependent effect
same,concentration at 192 h,[20],4 to 39 µM
same,fraction unbound at 192 h,[21],0.0024
same,Activity,Rattus norvegicus [22],Dose-dependent effect
same,Activity,Rattus norvegicus [23],80 pmol/L
same,Activity,Rattus norvegicus [24],70 pmol/L
same,Activity,Rattus norvegicus [25],Dose-dependent effect
same,Activity,Rattus norvegicus [26],76 nM
same,IC50,[27],1500 nM
same,IC50,[28],2200 nM
same,IC50,[29],1200 nM
same,IC50,[30],2200 nM
